# Experimental data reported in patent US6444217B1, “Drug delivery devices, and methods of use” (University of Washington, priority 2000, dated 2002).
# System: 3T3-L1 adipocyte cells
# Test: ability of released insulin to regulate 14C-deoxyglucose uptake
# Format: cell-based
# Details: 14C-deoxyglucose uptake by cultured 3T3-L1 adipocyte cells
substance,measurement,value
insulin,biological activity of released insulin,retains its biological activity
